This passage reports IC50 results from ChEMBL document CHEMBL6074634, “Design, synthesis, and evaluation of novel oxyacanthine derivatives for anti-SARS-CoV-2 activity” (Bioorg Med Chem Lett, 2024).

Molecules are shown by their SMILES.

The assay relates to SARS-CoV-2. The assay is described as follows: Antiviral activity against SARS CoV-2 infected in african green monkey Vero E6 cells assessed as inhibition of viral growth preincubated with cells for 1 hr followed by viral addition for 1 hr with subsequent compound washout and measured after 24 hrs of compound replacement by qRT-PCR analysis. It is filed as functional, organism-based. Particulars: Severe acute respiratory syndrome coronavirus 2, Vero C1008. (In general: In qPCR the cycle at which signal appears reflects the starting amount.)
In general, IC50 refers to the concentration needed to halve the response being measured. In the case of `COc1cc2c3cc1Oc1c(OC)c(OC)cc4c1[C@H](Cc1ccc(cc1)Oc1cc(ccc1C1CC1)C[C@H]3N(C)CC2)N(C)CC4`, the IC50 turned out to be 2570 nM.

With `COc1ccc(NC(=O)c2ccc3cc2Oc2ccc(cc2)C[C@H]2c4c(cc(OC)c(OC)c4Oc4cc5c(cc4OC)CCN(C)[C@@H]5C3)CCN2C)cc1`, the IC50 was 620 nM.

On to `COc1cc2c3cc1Oc1c(OC)c(OC)cc4c1[C@H](Cc1ccc(cc1)Oc1cc(ccc1C(=O)Nc1ccccc1)C[C@H]3N(C)CC2)N(C)CC4`, for which the IC50 was 2820 nM.

Consider `C=CC(=O)Nc1ccc2cc1Oc1ccc(cc1)C[C@H]1c3c(cc(OC)c(OC)c3Oc3cc4c(cc3OC)CCN(C)[C@@H]4C2)CCN1C`, for which the IC50 was 1850 nM.

With `COc1cc2c3cc1Oc1c(OC)c(OC)cc4c1[C@H](Cc1ccc(cc1)Oc1cc(ccc1C(=O)NC1CCCC1)C[C@H]3N(C)CC2)N(C)CC4`, the IC50 worked out at 1490 nM.

On to `COc1cc2c3cc1Oc1c(OC)c(OC)cc4c1[C@H](Cc1ccc(cc1)Oc1cc(cc([N+](=O)[O-])c1)C[C@H]3N(C)CC2)N(C)CC4`, for which the IC50 worked out at 720 nM.

As to `COc1cc2c3cc1Oc1c(OC)c(OC)cc4c1[C@H](Cc1ccc(cc1)Oc1cc(ccc1C(=O)NC1CC1)C[C@H]3N(C)CC2)N(C)CC4`, the IC50 was found to be 890 nM.

For the compound `COc1cc2c3cc1Oc1c(OC)c(OC)cc4c1[C@H](Cc1ccc(cc1)Oc1cc(ccc1N)C[C@H]3N(C)CC2)N(C)CC4`, the IC50 is above 5000 nM.

As to `COc1cc2c3cc1Oc1c(OC)c(OC)cc4c1[C@H](Cc1ccc(cc1)Oc1cc(ccc1C(=O)N1CCCCC1)C[C@H]3N(C)CC2)N(C)CC4`, the IC50 worked out at 1600 nM.

Turning to `COc1cc2c3cc1Oc1c(OC)c(OC)cc4c1[C@H](Cc1ccc(cc1)Oc1cccc(c1)C[C@H]3N(C)CC2)N(C)CC4`, the IC50 came out at 930 nM.

As to `COc1cc2c3cc1Oc1c(OC)c(OC)cc4c1[C@H](Cc1ccc(cc1)Oc1cc(cc(N)c1O)C[C@H]3N(C)CC2)N(C)CC4`, the IC50 was above 5000 nM.

Turning to `COc1cc2c3cc1Oc1c(OC)c(OC)cc4c1[C@H](Cc1ccc(cc1)Oc1cc(ccc1C(C)=O)C[C@H]3N(C)CC2)N(C)CC4`, the IC50 came out at 1480 nM.

As to `C=C(C)c1ccc2cc1Oc1ccc(cc1)C[C@H]1c3c(cc(OC)c(OC)c3Oc3cc4c(cc3OC)CCN(C)[C@@H]4C2)CCN1C`, the IC50 amounted to 1090 nM.

Consider `COc1cc2c3cc1Oc1c(OC)c(OC)cc4c1[C@H](Cc1ccc(cc1)Oc1cc(ccc1C(=O)Nc1ccc(C(F)(F)F)cc1)C[C@H]3N(C)CC2)N(C)CC4`, for which the half-maximal inhibitory concentration (IC50) was determined as 2780 nM.

Take `COC(=O)c1ccc2cc1Oc1ccc(cc1)C[C@H]1c3c(cc(OC)c(OC)c3Oc3cc4c(cc3OC)CCN(C)[C@@H]4C2)CCN1C`: the IC50 is 840 nM.

Regarding `COc1cc2c3cc1Oc1c(OC)c(OC)cc4c1[C@H](Cc1ccc(cc1)Oc1cc(ccc1C)C[C@H]3N(C)CC2)N(C)CC4`, the IC50 amounted to 2450 nM.

Take `COc1cc2c3cc1Oc1c(OC)c(OC)cc4c1[C@H](Cc1ccc(cc1)Oc1cc(ccc1C(=O)NC15CC6CC(CC(C6)C1)C5)C[C@H]3N(C)CC2)N(C)CC4`: the IC50 was determined as 1060 nM.

In the case of `COc1cc2c3cc1Oc1c(OC)c(OC)cc4c1[C@H](Cc1ccc(cc1)Oc1cc(ccc1NCc1ccccc1)C[C@H]3N(C)CC2)N(C)CC4`, the IC50 was above 5000 nM.

Take `COc1cc2c3cc1Oc1c(OC)c(OC)cc4c1[C@H](Cc1ccc(cc1)Oc1cc(ccc1C(=O)NC(C)C)C[C@H]3N(C)CC2)N(C)CC4`: the IC50 amounted to 1020 nM.

As to `COc1cc2c3cc1Oc1c(OC)c(OC)cc4c1[C@H](Cc1ccc(cc1)Oc1cc(ccc1C(=O)O)C[C@H]3N(C)CC2)N(C)CC4`, the IC50 is above 5000 nM.

`CNc1ccc2cc1Oc1ccc(cc1)C[C@H]1c3c(cc(OC)c(OC)c3Oc3cc4c(cc3OC)CCN(C)[C@@H]4C2)CCN1C`: the IC50 was above 5000 nM.

For `COc1cc2c3cc1Oc1c(OC)c(OC)cc4c1[C@H](Cc1ccc(cc1)Oc1cc(ccc1C(N)=O)C[C@H]3N(C)CC2)N(C)CC4`, the IC50 was determined as 550 nM.

On to `COc1cc2c3cc1Oc1c(OC)c(OC)cc4c1[C@H](Cc1ccc(cc1)Oc1cc(ccc1C(=O)NCCOCCO)C[C@H]3N(C)CC2)N(C)CC4`, for which the concentration for half-maximal inhibition (IC50) stood at 2740 nM.

In the case of `COc1cc2c3cc1Oc1c(OC)c(OC)cc4c1[C@H](Cc1ccc(cc1)Oc1cc(ccc1C(=O)Nc1cccnc1)C[C@H]3N(C)CC2)N(C)CC4`, the IC50 stood at 940 nM.

In the case of `COc1cc2c3cc1Oc1c(OC)c(OC)cc4c1[C@H](Cc1ccc(cc1)OC1C=C(Cc5[nH]c(=O)oc51)C[C@H]3N(C)CC2)N(C)CC4` (stereo not given in full), the IC50 worked out at 670 nM.

For `CCCCCNC(=O)c1ccc2cc1Oc1ccc(cc1)C[C@H]1c3c(cc(OC)c(OC)c3Oc3cc4c(cc3OC)CCN(C)[C@@H]4C2)CCN1C`, the IC50 was 2520 nM.

For `COc1cc2c3cc1Oc1c(OC)c(OC)cc4c1[C@H](Cc1ccc(cc1)Oc1cc(ccc1C(=O)NC1CCC1)C[C@H]3N(C)CC2)N(C)CC4`, the concentration for half-maximal inhibition (IC50) is 530 nM.

In the case of `CNC(=O)c1ccc2cc1Oc1ccc(cc1)C[C@H]1c3c(cc(OC)c(OC)c3Oc3cc4c(cc3OC)CCN(C)[C@@H]4C2)CCN1C`, the IC50 worked out at 2510 nM.

Turning to `COc1cc2c3cc1Oc1c(OC)c(OC)cc4c1[C@H](Cc1ccc(cc1)Oc1cc(cc([N+](=O)[O-])c1O)C[C@H]3N(C)CC2)N(C)CC4`, the IC50 was above 5000 nM.

On to `COc1cc2c3cc1Oc1c(OC)c(OC)cc4c1[C@H](Cc1ccc(cc1)Oc1cc(ccc1O)C[C@H]3N(C)CC2)N(C)CC4` [AROMOLINE], for which the IC50 was 14500 nM.
